Source: ChEMBL document CHEMBL1201862, “PubChem BioAssay data set” (2004)
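Assay format: 96-well plates, 48-hour exposure. At the GI50, growth is halved.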 The source made the active and inactive calls. Rule as the data show it: active = GI50 up to about 1.1 µM and inactive = higher.

Tests used:
Assay in all cases: NCI anticancer screen, dose series, 48 h
A498 = tested on: A498
ACHN = tested on: ACHN
CCRF-CEM = tested on: CCRF-CEM
DLD-1 = tested on: DLD-1
HCT-116 = tested on: HCT-116
HOP-62 = tested on: HOP-62
HOP-92 = tested on: HOP-92
K562 = tested on: K562
LXFL 529 = tested on: LXFL 529
Malme-3M = tested on: Malme-3M
NCI-H23 = tested on: NCI-H23
OVCAR-5 = tested on: OVCAR-5
SF-268 = tested on: SF-268
SNB-19 = tested on: SNB-19
SNB-75 = tested on: SNB-75
SR = tested on: SR
UACC-62 = tested on: UACC-62

SMILES	GI50 (A498)	GI50 (ACHN)	GI50 (CCRF-CEM)	GI50 (DLD-1)	GI50 (HCT-116)	GI50 (HOP-62)	GI50 (HOP-92)	GI50 (K562)	GI50 (LXFL 529)	GI50 (Malme-3M)	GI50 (NCI-H23)	GI50 (OVCAR-5)	GI50 (SF-268)	GI50 (SNB-19)	GI50 (SNB-75)	GI50 (SR)	GI50 (UACC-62)
COc1ccc(C(N)=O)cc1/N=N/N(C)C	> 100 µM (inactive)	> 100 µM (inactive)	> 100 µM (inactive)	> 100 µM (inactive)	> 100 µM (inactive)	> 100 µM (inactive)	> 100 µM (inactive)	> 100 µM (inactive)	> 100 µM (inactive)	> 100 µM (inactive)	> 100 µM (inactive)	> 100 µM (inactive)	> 100 µM (inactive)	> 100 µM (inactive)	> 100 µM (inactive)	39.8 µM (inactive)	> 100 µM (inactive)
O=C1C=CC(CC(=O)c2ccc3ccccc3c2)O1 (stereo not given)	20 µM (inactive)	37.3 µM (inactive)	23.2 µM (inactive)	28.7 µM (inactive)	17.9 µM (inactive)	21.5 µM (inactive)	28 µM (inactive)	32.9 µM (inactive)	18.4 µM (inactive)	34.3 µM (inactive)	20.7 µM (inactive)	25.4 µM (inactive)	17.6 µM (inactive)	32.7 µM (inactive)	37.8 µM (inactive)	30.3 µM (inactive)	18.8 µM (inactive)
CN(C)CCNC(=O)c1cccc2ncc(-c3ccccc3)nc12	6.15 µM (inactive)	5.35 µM (inactive)	8.99 µM (inactive)	5.45 µM (inactive)	4.26 µM (inactive)	9.25 µM (inactive)	18.7 µM (inactive)	9.02 µM (inactive)	6.81 µM (inactive)	13 µM (inactive)	14.6 µM (inactive)	9.04 µM (inactive)	10.6 µM (inactive)	17.1 µM (inactive)	17.5 µM (inactive)	1.9 µM (inactive)	13.8 µM (inactive)
CCC(=O)N1C(=S)SC[C@H]1C(=O)OC	> 100 µM (inactive)	> 100 µM (inactive)	69.2 µM (inactive)	> 100 µM (inactive)	> 100 µM (inactive)	> 100 µM (inactive)	> 100 µM (inactive)	> 100 µM (inactive)	> 100 µM (inactive)	> 100 µM (inactive)	> 100 µM (inactive)	> 100 µM (inactive)	> 100 µM (inactive)	> 100 µM (inactive)	> 100 µM (inactive)	> 100 µM (inactive)	> 100 µM (inactive)
COC(=O)C1C(=O)CC2CCCCC21 (stereo not given)	> 100 µM (inactive)	> 100 µM (inactive)	> 100 µM (inactive)	> 100 µM (inactive)	> 100 µM (inactive)	> 100 µM (inactive)		> 100 µM (inactive)	> 100 µM (inactive)	> 100 µM (inactive)			> 100 µM (inactive)	> 100 µM (inactive)	> 100 µM (inactive)	> 100 µM (inactive)	> 100 µM (inactive)
Cc1ccccc1NC(=O)C1C(=O)N(c2ccccc2C)C(=O)/C1=N\N (stereo not given)	> 100 µM (inactive)	> 100 µM (inactive)	> 100 µM (inactive)	> 100 µM (inactive)	> 100 µM (inactive)	> 100 µM (inactive)	> 100 µM (inactive)	> 100 µM (inactive)	> 100 µM (inactive)	> 100 µM (inactive)	> 100 µM (inactive)	> 100 µM (inactive)	> 100 µM (inactive)	> 100 µM (inactive)	> 100 µM (inactive)	> 100 µM (inactive)	> 100 µM (inactive)
O=C(O)c1ccc(C2COc3ccc(Cl)cc3C2)cc1 (stereo not given)	> 100 µM (inactive)	> 100 µM (inactive)	> 100 µM (inactive)	> 100 µM (inactive)	> 100 µM (inactive)	> 100 µM (inactive)	> 100 µM (inactive)	> 100 µM (inactive)	> 100 µM (inactive)	> 100 µM (inactive)	> 100 µM (inactive)	> 100 µM (inactive)	> 100 µM (inactive)	> 100 µM (inactive)	31.6 µM (inactive)	> 100 µM (inactive)	> 100 µM (inactive)
Cc1cccc(C(C)(C)C)c1NC(=O)C(=O)C(c1cnc2ccccc2n1)[N+](=O)[O-] (stereo not given)	> 100 µM (inactive)	> 100 µM (inactive)	32.1 µM (inactive)	> 100 µM (inactive)	> 100 µM (inactive)	> 100 µM (inactive)	> 100 µM (inactive)	> 100 µM (inactive)	> 100 µM (inactive)	> 100 µM (inactive)	> 100 µM (inactive)	> 100 µM (inactive)	> 100 µM (inactive)	> 100 µM (inactive)	> 100 µM (inactive)	> 100 µM (inactive)	> 100 µM (inactive)
CCOC(=O)C(=O)Nc1ccc(C)c(C)c1	> 100 µM (inactive)	> 100 µM (inactive)	> 100 µM (inactive)	> 100 µM (inactive)	> 84.7 µM (inactive)	> 100 µM (inactive)		> 73.1 µM (inactive)	> 86.9 µM (inactive)	> 100 µM (inactive)	> 100 µM (inactive)	> 100 µM (inactive)	> 100 µM (inactive)	> 100 µM (inactive)	> 100 µM (inactive)	< 0.01 µM (active)	> 100 µM (inactive)
O=C(/C=C/c1ccccc1O)c1cccc2ccccc12	> 100 µM (inactive)	> 100 µM (inactive)	18.2 µM (inactive)	37.3 µM (inactive)	27.6 µM (inactive)	> 81.7 µM (inactive)	> 52.2 µM (inactive)	32 µM (inactive)	36.2 µM (inactive)	> 100 µM (inactive)	60.7 µM (inactive)	> 100 µM (inactive)	48.8 µM (inactive)	69.2 µM (inactive)	48.8 µM (inactive)	31.3 µM (inactive)	> 100 µM (inactive)
CC1=N/C(=C\c2ccc(N)cc2)C(=O)N1Nc1nnc(NN2C(=O)/C(=C/c3ccc(N)cc3)N=C2C)c2ccccc12	> 100 µM (inactive)	> 100 µM (inactive)	18.6 µM (inactive)	> 100 µM (inactive)	> 100 µM (inactive)	23.1 µM (inactive)	> 100 µM (inactive)	27.4 µM (inactive)	36.3 µM (inactive)		> 100 µM (inactive)	> 100 µM (inactive)	55 µM (inactive)	33 µM (inactive)	5.05 µM (inactive)	30.1 µM (inactive)	54.5 µM (inactive)
COc1ccc2cc1Oc1ccc(cc1)CC1c3cc(c(OC)cc3CCN1C)Oc1c3c(cc4c1C(C2)N(C)CC4)OCO3 (stereo not given)		4.58 µM (inactive)	13.2 µM (inactive)	17 µM (inactive)	12.8 µM (inactive)	15.5 µM (inactive)		1.85 µM (inactive)	13 µM (inactive)		17 µM (inactive)	18.2 µM (inactive)	8.36 µM (inactive)	17.6 µM (inactive)	3.74 µM (inactive)	7.85 µM (inactive)	16.2 µM (inactive)
CC1=C(C(=O)Nc2ccccc2C)C(c2ccc(C3C(C(=O)Nc4ccccc4C)=CNC=C3C(=O)Nc3ccccc3C)cc2)C(C(=O)Nc2ccccc2C)=C(C)N1	20.7 µM (inactive)	16.4 µM (inactive)	3.15 µM (inactive)	13.6 µM (inactive)	19.5 µM (inactive)	25.4 µM (inactive)	22.4 µM (inactive)	9.27 µM (inactive)	10.9 µM (inactive)	19.1 µM (inactive)	19.1 µM (inactive)	21.6 µM (inactive)	11.4 µM (inactive)	19.8 µM (inactive)	19.5 µM (inactive)	3.22 µM (inactive)	12.7 µM (inactive)
O=C1OC2(c3ccccc3Oc3ccccc32)c2ccccc21	> 100 µM (inactive)	> 100 µM (inactive)	> 100 µM (inactive)	> 100 µM (inactive)	> 100 µM (inactive)	> 100 µM (inactive)	> 100 µM (inactive)	50.8 µM (inactive)	> 100 µM (inactive)	> 100 µM (inactive)	> 100 µM (inactive)	> 100 µM (inactive)	> 100 µM (inactive)	> 100 µM (inactive)	> 100 µM (inactive)	> 100 µM (inactive)	> 100 µM (inactive)
OC(c1cc2ccccc2[nH]1)C(O)(c1cc2ccccc2[nH]1)c1cc2ccccc2[nH]1 (stereo not given)		18.6 µM (inactive)	12.3 µM (inactive)	11 µM (inactive)	6.92 µM (inactive)	15.4 µM (inactive)	14.9 µM (inactive)	10.9 µM (inactive)	10 µM (inactive)	28.4 µM (inactive)	5.83 µM (inactive)	57.8 µM (inactive)	15.6 µM (inactive)	27.2 µM (inactive)		7.69 µM (inactive)	5.97 µM (inactive)
C=C1C(=O)O[C@@H]2[C@H]1CCC(C)=C1C=CC(=O)[C@]12C		16.1 µM (inactive)	3.15 µM (inactive)	14.9 µM (inactive)	12.2 µM (inactive)		6.22 µM (inactive)	4.49 µM (inactive)	13.8 µM (inactive)	> 10 µM (inactive)	> 10 µM (inactive)	17.9 µM (inactive)	23.9 µM (inactive)	23.7 µM (inactive)	18.9 µM (inactive)	13.6 µM (inactive)	10.3 µM (inactive)
O=C1c2cccc(O)c2C(=O)c2c(O)cc(CO)cc21 [ALOE-EMODIN]	74.3 µM (inactive)	32.7 µM (inactive)	31.3 µM (inactive)	32.5 µM (inactive)	30.1 µM (inactive)	> 100 µM (inactive)	> 100 µM (inactive)		56 µM (inactive)	20.8 µM (inactive)	> 100 µM (inactive)	> 100 µM (inactive)	52.4 µM (inactive)	49.1 µM (inactive)	72.8 µM (inactive)	32.9 µM (inactive)	
